Measured values taken from publication PMC9606187, “Dual HDAC/BRD4 Inhibitors Relieves Neuropathic Pain by Attenuating Inflammatory Response in Microglia After Spared Nerve Injury” (Neurotherapeutics, 2022).
pIC50: −log10 of the molar value.

Tests used:
HDAC1 [1] = assay: Western blot of lumbar spinal cord, HDAC1; format: in vivo, mice; conditions: SNI ipsilateral side, day 7 and 14 post-surgery, i.n.
Procedure: The lumbar spinal cord was removed 7 and 14 days after surgery and 90 min after the intranasal administration of SUM52, corresponding to the peack of the effect. Samples (n = 4 for groups) were homogenized in a homogenization buffer and processed as previously described. Protein samples (40 µg of protein/sample) were separated on 10% SDS-PAGE and transferred onto nitrocellulose membranes (120 min at 100 V) using standard procedures. Membranes were blocked in PBST (PBS containing 0.1% Tween) containing 5% nonfat dry milk for 120 min. […] Blots were then extensively washed and developed using enhanced chemiluminescence detection system (Pierce, Milan, Italy) and signal intensity (pixels/mm^2) quantified (ImageJ, NIH). […] For each sample, the signal intensity was normalized to that of total protein stained by Ponceau S and the acquired images were quantified using Image Lab software. […]

SNI mice [2] = assay: Observation of sedation or motor dysfunction; format: in vivo; conditions: single administration 50 µM i.n.
[3] = target: T1, Recombinant Human Bromodomain containing protein 4, bromodomain 2 (BRD4-BD2) (Homo sapiens, UniProt O60885); assay: AlphaScreen bromodomain binding assay (Reaction Biology), BRD4-2
T1 construct: purchased Reaction Biology (RBC) RD-11–141; host or cells: E. coli
Procedure: The reader assay is a binding assay using AlphaScreen technology […] assay and was performed by Reaction Biology (www.reactionbiology.com). The biotinylated peptide binding to the reader domain of His-tagged protein is monitored by the singlet oxygen transfer from the Streptavidin-coated donor beads to the AlphaScreen Ni-chelate acceptor beads.
Reaction buffer: 50 mM Hepes, pH7.5, 100 mM NaCl, 0.05% CHAPS, 0.1% BSA, and 1% DMSO (the final DMSO concentration may differ depending on compound stock and test concentrations).
Bromodomain: BRD4-1: RBC Cat# RD-11–140: Recombinant Human Bromodomain containing protein 4, bromodomain 1 (aa 44–170; Genbank Accession # NM_058243), expressed in E. coli with N-terminal His-tag. MW = 17.8 kDa; BRD4-2: RBC Cat# RD-11–141: Recombinant Human Bromodomain containing protein 4, bromodomain 2 (aa 349–460;Genbank Accession # NM_058243), expressed in E. coli with N-terminal His-tag. MW = 15.7 kDa. Ligand (C-term-Biotin): Histone H4 peptide (1–21) K5/8/12/16Ac-Biotin. Detection beads: PerkinElmer: Donor beads: Streptavidin-coated donor beads; Acceptor beads: AlphaScreen Ni acceptor beads.
Reaction procedure: • Deliver 2.5X BRD in wells of reaction plate except No BRD control wells. Add buffer instead. • Deliver compounds in 100% DMSO into the BRD mixture by Acoustic technology (Echo550; nanoliter range). Spin down and pre-incubation for 30 min. • Deliver 5X Ligand. Spin and shake. • Incubate for 30 min at room temperature with gentle shaking. • Deliver 5X donor beads. Spin and shake. • Deliver 5X acceptor beads. Spin and shake. Then gentle shaking in the dark for 60 min. • Alpha measurement (Ex/Em = 680/520–620 nm) in Enspire.

SNI mice [4] = assay: Hargreaves' plantar test, thermal allodynia in SNI mice; format: in vivo
Procedure: Mice were randomly assigned to each treatment group.
For i.n. administration, mice were slightly anesthetized by 2% isoflurane inhalation and placed in a supine position [30]. A 5 μl aliquot of solution (treatments or vehicle) was slowly dropped alternatively to each nostril with a micropipette tip.
Behavioral testing was performed before surgery to establish a baseline for comparison with post-surgical values.
Animals were habituated to the testing environment daily for at least 2 days before baseline testing. To evaluate onset and progression of pain hypersensitivity, neuropathic mice were monitored by measuring nociceptive responses every 30 min for 3 h before surgery or 3, 7, 10, and 14 days after nerve surgery. Experiments were performed on post-surgery day 7 and 14 when the pain hypersensitivity was well established. Each mouse served as its own control, the responses being measured both before and after surgery. All testing was performed with a blind procedure.
Thermal nociceptive threshold was measured using Hargreaves’ device, as described [33]. Nociceptive response for thermal sensitivity was expressed as thermal paw withdrawal latency in seconds. All determinations were averaged for each animal.

HDAC1 [5] = target: T2, HDAC1 (Homo sapiens, UniProt Q13547); assay: HDAC1 immunoprecipitation & activity assay on treated HCT-116 cells; format: cell-based; conditions: HCT-116 cells treated at 10 µM for 12 h; in comparison with SAHA
T2 construct: endogenous in cells; host or cells: HCT-116
Procedure: HDAC assay: To test the inhibition activity of compounds, the HDAC1 immunoprecipitation (IP) & Activity Assay Kit (Catalog # K342-25; Biovision) was used under the protocol provided by the kit. HCT-116 cell lines were plated in 6 wells and treated with the investigated compounds at 10 µM for 12 h. After incubation, the media was removed, and the cells were washed with PBS (EuroClone) solution (2X). Then, 200 µl/well of lysis buffer with protease inhibitor was added and the cells were scraped and incubated in ice for 30 min. After centrifugation at 10,000 g for 10 min at 4 °C, the supernatant was collected. One hundred micrograms of each extract was incubated with 6 µl of Rabbit HDAC1 antibody and Rabbit IgG and the volume was reached to 500 µl with PBS with protease inhibitors. After incubation at 4 °C overnight a rotary mixer, 25 µl of the protein-A/G bead slurry, previously washed with PBS (2X), was added to the samples and incubated for 1 h at 4 °C. The beads were recovered after 3 washes with 1 ml PBS, by centrifuging at 14,000 g for ~ 10 s and used for HDAC assay.
HDAC assay preparation: For each reaction, 168 µl reaction mix containing HDAC assay buffer and HDAC substrate was prepared, added to the sample and to background control tube, and incubated at 37 °C for 2 h. SAHA was used as a positive control. […] The fluorescence was read at Ex/Em = 380/500 nm with Tecan M1000 plate reader.

SNI mice [6] = assay: Rotarod test; format: in vivo; conditions: 50 µM i.n., vs vehicle-treated SNI mice
Procedure: The possible alteration of motor performance induced by each treatment was assessed by rotarod test, as previously described. The integrity of motor coordination was assessed as number of falls from the rod in 30 s.

T2 sequence (Q13547 whole entry): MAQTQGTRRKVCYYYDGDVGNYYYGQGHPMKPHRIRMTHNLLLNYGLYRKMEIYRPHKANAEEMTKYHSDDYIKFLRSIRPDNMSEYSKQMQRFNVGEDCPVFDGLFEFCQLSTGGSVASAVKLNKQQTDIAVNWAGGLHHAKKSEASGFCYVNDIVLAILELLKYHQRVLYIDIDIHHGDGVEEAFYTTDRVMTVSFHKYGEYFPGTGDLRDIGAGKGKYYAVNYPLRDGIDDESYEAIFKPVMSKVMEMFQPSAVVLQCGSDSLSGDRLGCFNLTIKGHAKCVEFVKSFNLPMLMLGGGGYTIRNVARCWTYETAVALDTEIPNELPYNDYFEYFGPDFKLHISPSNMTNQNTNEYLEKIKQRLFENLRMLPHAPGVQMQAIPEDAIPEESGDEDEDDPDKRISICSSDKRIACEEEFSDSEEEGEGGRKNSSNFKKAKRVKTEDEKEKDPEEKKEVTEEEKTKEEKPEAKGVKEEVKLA

## Cc1nnc2n1-c1ccccc1C(c1ccccc1)=N[C@H]2CC(=O)NCCCCCCC(=O)NO [SUM52, (S)-N-hydroxy-7-(2-(1-methyl-6-phenyl-4H-benzo[f][1,2,4]triazolo[4,3-a][1,4]diazepin-4-yl)acetamido)heptanamide]
HDAC1 [1]
  spinal HDAC1 protein expression: restored both epigenetic enzyme levels to control values
SNI mice [2]
  apparent sedation or motor dysfunction: No animal showed apparent sedation or motor dysfunction
[3]
  pIC50: 7.98
[3]; BRD4-BD1 vs BRD4-BD2
  preference between BRD4-BD1 and BRD4-BD2 domains: preferential interaction for BRD4-BD2
SNI mice [4]; 10 µM i.n., 90 min
  thermal antiallodynic activity, ipsilateral side: ineffective
SNI mice [4]; 50 µM i.n., vs before treatment values
  thermal antiallodynic activity, ipsilateral side: attenuated the SNI-induced pain hypersensitivity
SNI mice [4]; 75 µM i.n., vs before treatment values
  thermal antiallodynic activity, ipsilateral side: attenuated the SNI-induced pain hypersensitivity
SNI mice [4]; 100 µM i.n.
  thermal antiallodynic activity, ipsilateral side: the effect was significantly reduced
SNI mice [4]; SUM52 50 µM vs SUM35 100 µM
  duration of effect on thermal allodynia compared with SUM35: more prolonged affect
SNI mice [4]; SUM52 50 µM vs SUM35 100 µM, normalized to control group, day 7 and 14
  efficacy in attenuating thermal allodynia compared with SUM35: comparable efficacy
SNI mice [4]; contralateral (uninjured) side of SNI mice
  thermal analgesic effect in the contralateral side: absence
SNI mice [4]; time-course comparison, combination i-BET762 10 µg, SAHA 3 µg
  thermal antiallodynic efficacy compared with SAHA + iBET762 combination: comparable efficacy
HDAC1 [5]
  inhibition of HDAC1 enzymatic activity: Partial inhibition
SNI mice [6]
  motor coordination (rotarod test): no alteration
